Measurements from patent publication US11666519B2, “Personal care compositions with cystine” (Conopco, Inc., priority 2016, dated 2023).

Assays:
[1] = Experimental: The compositional examples are in the table 3 below. The samples in table 3 were prepared by process C in table 1.
The results in Table 3 illustrate that other ingredients can be added to the inventive compositions, as long as lamellar bilayer liquid crystal or liquid gel structure remains intact.

[2] = Microscopy of cystine crystals recrystallized from high pH solution in hystric acid/KOH acid soap mixtures (Example 1); assay type: physicochemical
Experimental: The size of crystals can be estimated by microscopy.
The soap/acid emulsions were prepared using hystric acid (55% palmitic acid/45% stearic acid) by melting the hystric acid at 75° C. and adding this melted acid to aqueous phase consisting of KOH. […] Solubilized cystine in high pH solution was then added to the acid/soap mixture as high pH solution. Depending on the procedure of addition, differences in final formulations have been achieved.
Formula A was prepared by dissolving the cystine in hot KOH solution. Melted hystric acid was then added to this hot (75° C.) aqueous solution of cystine, mixed and let cool down to room temperature while mixing. Formula B was prepared by adding the melted hystric acid to hot KOH solution, and adding the high pH solution of cystine while mixing all ingredients at 75° C. Formula C was prepared by adding the melted hystric acid to hot KOH solution, creating thus soap, cooling the soap to 50° C. and then adding the high pH solution of cystine The resulting acid soap mixtures were observed under microscope for the formation of cystine crystals. […] Addition of cystine solution to acid soap mixture at 50-60° C. is preferred as only small particles are formed. At this temperature the majority of acid soap exists in lamellar liquid crystal or lamellar gel with vary narrow aqueous layer creating a restrictive environment for cystine crystal growth. […]

[3] = remark: listed apart in the source
Experimental: Additional samples with decreasing concentration of cystine were prepared to find the solubility limit for cystine in acid soap mixture. Samples in table 2 were prepared by Process A in table 1.
The samples were evaluated under microscope on the hot plate at 80° C.

[4] = cited from earlier work
[5] = Solubility of L-cystine neutralized with fatty acids, HPLC (Example 5); conditions: for Solubility ppm cystine: excess L-cystine in NaOH neutralized with the named acid, equilibrated at least 72 hours, filtered, HPLC, 3 replicas; for pH: pH of the cystine solution neutralized with the named acid
Experimental: Solubility of cystine was determined in the presence of alternative fatty acids. […] The precipitate upon neutralization was equilibrated with saturated solution for at least 72 hours. The solutions were then filtered through 0.45 micrometer PTFE or nylon (for C12) syringe filter and analysed on HPLC for cystine concentration.

solubility of cystine, minimal concentration [1]	average particle size of cystine ([2]; added from high pH solution to fatty acid-soap lamellar liquid crystal or lamellar gel)	cystine crystal size ([2]; cystine added at 75 C-80° C. when in the form of oil-in-water emulsion)	solubility of cystine in the hystric acid acid/soap media [3]	SMILES	natural solubility of cystine [4]	Solubility ppm cystine [5]	pH [5]
greater than 600 ppm	less than 20 micrometers	greater than 20 micrometers	greater than 700 ppm	N[C@@H](CSSC[C@H](N)C(=O)O)C(=O)O [cystine]	100 ppm		
				CCCCCCCC/C=C\CCCCCCCC(=O)O [Oleic acid (C18:1), Oleic acid]		246.8 ppm	7.3
				CCCCCCCCCCCC(=O)O [Dodecanoic (C12) with NaOH, Dodecanoic]		575 ppm	7.6
				CCCCCCCCCCCC(=O)O [Dodecanoic (C12) with KOH, Dodecanoic]		490.6 ppm	7.6
				O=C(O)/C=C\C(=O)O [Maleic]		181.6 ppm	6.6
